Results published in PubChem BioAssay AID248 (DTP/NCI, 2004).
Where “and” joins values, the source holds several entries; their conditions need not be identical. Equal entries are not always repeated. Toxic doses and inconclusive results are not listed.

Tested on: L1210 leukemia ip in BDF1 mice, survival T/C
Test: NCI In Vivo Anticancer Drug Screen. Data for tumor model L1210 Leukemia (intraperitoneal) in B6D2F1 (BDF1) mice
Settings: endpoint: mean survival time, higher = longer survival
Procedure, shortened: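 Each compound was tested against a transplantable tumor grown in mice. The endpoint was survival, with treated animals benchmarked against vehicle controls as a simple ratio.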

In the case of `O=C1CN=C(c2ccc[nH]2)c2cc(Cl)ccc2N1`, the T/C (dose: 1.56 mg/kg/injection, schedule: Q03HX008 (oral), vehicle: saline with Tween-80) is reported as 98 % of control, the T/C (dose: 1.56 mg/kg/injection, schedule: Q03HX016 (oral), vehicle: saline with Tween-80) is reported as 103 % of control and the T/C (dose: 1.56 mg/kg/injection, schedule: Q03HX024 (oral), vehicle: saline with Tween-80) is reported as 98 % of control. The T/C (dose: 3.12 mg/kg/injection, schedule: Q03HX008 (oral), vehicle: saline with Tween-80) was 97 % of control, the T/C (dose: 3.12 mg/kg/injection, schedule: Q03HX016 (oral), vehicle: saline with Tween-80) was 102 % of control and the T/C (dose: 3.12 mg/kg/injection, schedule: Q03HX024 (oral), vehicle: saline with Tween-80) was 100 % of control. For the same compound, the T/C (dose: 6.25 mg/kg/injection, schedule: Q03HX008 (oral), vehicle: saline with Tween-80) was 98 % of control, the T/C (dose: 6.25 mg/kg/injection, schedule: Q03HX016 (ip), vehicle: other) was 105 % of control and the T/C (dose: 6.25 mg/kg/injection, schedule: Q03HX016 (oral), vehicle: saline with Tween-80) was 98 % of control. The T/C (dose: 6.25 mg/kg/injection, schedule: Q03HX024 (ip), vehicle: other) was 114 % of control, the T/C (dose: 6.25 mg/kg/injection, schedule: Q03HX024 (oral), vehicle: saline with Tween-80) was 97 % of control and the T/C (dose: 7.13 mg/kg/injection, schedule: Q01DX009 (ip), vehicle: clinical formulation) was 102 % of control. The T/C (dose: 12.5 mg/kg/injection, schedule: Q03HX008 (oral), vehicle: saline with Tween-80) was 102 % of control, the T/C (dose: 12.5 mg/kg/injection, schedule: Q03HX016 (ip), vehicle: other) was 104 % of control and the T/C (dose: 12.5 mg/kg/injection, schedule: Q03HX016 (oral), vehicle: saline with Tween-80) was 97 % of control. The T/C (dose: 12.5 mg/kg/injection, schedule: Q03HX024 (ip), vehicle: other) was 114 % of control, the T/C (dose: 12.5 mg/kg/injection, schedule: Q03HX024 (oral), vehicle: saline with Tween-80) was 101 % of control and the T/C (dose: 14.2 mg/kg/injection, schedule: Q01DX009 (ip), vehicle: clinical formulation) was 103 % of control. The T/C (dose: 25.0 mg/kg/injection, schedule: Q01DX006 (iv), vehicle: other) was 100 % of control, the T/C (dose: 25.0 mg/kg/injection, schedule: Q03HX008 (oral), vehicle: saline with Tween-80) was 100 % of control and 101 % of control and the T/C (dose: 25.0 mg/kg/injection, schedule: Q03HX016 (ip), vehicle: other) was 112 % of control. The T/C (dose: 25.0 mg/kg/injection, schedule: Q03HX016 (oral), vehicle: saline with Tween-80) was 95 % of control and 103 % of control, the T/C (dose: 25.0 mg/kg/injection, schedule: Q03HX024 (oral), vehicle: saline with Tween-80) was 95 % of control and 98 % of control and the T/C (dose: 33.0 mg/kg/injection, schedule: Q01DX015 (ip), vehicle: other) was 123 % of control. For the same compound, the T/C (dose: 33.0 mg/kg/injection, schedule: Q01DX Z (ip), vehicle: carboxymethylcellulose (CMC)) was 120 % of control, the T/C (dose: 34.0 mg/kg/injection, schedule: Q01DX009 (ip), vehicle: other) was 105 % of control and the T/C (dose: 50.0 mg/kg/injection, schedule: Q01DX001 (iv), vehicle: other) was 101 % of control. For the same compound, the T/C (dose: 50.0 mg/kg/injection, schedule: Q01DX006 (iv), vehicle: other) was 102 % of control, the T/C (dose: 50.0 mg/kg/injection, schedule: Q01DX009 (ip), vehicle: Klucel (hydroxypropylcellulose) (HPC)) was 103 % of control and the T/C (dose: 50.0 mg/kg/injection, schedule: Q01DX009 (ip), vehicle: water) was 118 % of control. The T/C (dose: 50.0 mg/kg/injection, schedule: Q01DX015 (ip), vehicle: other) was 121 % of control, the T/C (dose: 50.0 mg/kg/injection, schedule: Q01DX Z (ip), vehicle: carboxymethylcellulose (CMC)) was 155 % of control and the T/C (dose: 50.0 mg/kg/injection, schedule: Q03HX008 (oral), vehicle: saline with Tween-80) was 108 % of control. For the same compound, the T/C (dose: 50.0 mg/kg/injection, schedule: Q03HX016 (ip), vehicle: other) was 122 % of control, the T/C (dose: 50.0 mg/kg/injection, schedule: Q03HX016 (oral), vehicle: saline with Tween-80) was 112 % of control and the T/C (dose: 50.0 mg/kg/injection, schedule: Q03HX024 (ip), vehicle: other) was 150 % of control. The T/C (dose: 50.0 mg/kg/injection, schedule: Q03HX024 (oral), vehicle: saline with Tween-80) was 110 % of control, the T/C (dose: 50.0 mg/kg/injection, schedule: Q04DX003 (ip), vehicle: other) was 108 % of control and the T/C (dose: 50.0 mg/kg/injection, schedule: Q08DX002 (ip), vehicle: other) was 96 % of control. The T/C (dose: 52.0 mg/kg/injection, schedule: Q01DX009 (ip), vehicle: other) was 98 % of control, the T/C (dose: 75.0 mg/kg/injection, schedule: Q01DX Z (ip), vehicle: carboxymethylcellulose (CMC)) was 174 % of control and the T/C (dose: 80.0 mg/kg/injection, schedule: Q01DX009 (ip), vehicle: other) was 108 % of control. For the same compound, the T/C (dose: 100.0 mg/kg/injection, schedule: Q01DX001 (ip), vehicle: other) was 98 % of control, the T/C (dose: 100.0 mg/kg/injection, schedule: Q01DX001 (iv), vehicle: other) was 101 % of control and the T/C (dose: 100.0 mg/kg/injection, schedule: Q01DX001 (oral), vehicle: saline with Tween-80) was 102 % of control. For the same compound, the T/C (dose: 100.0 mg/kg/injection, schedule: Q01DX006 (iv), vehicle: other) was 110 % of control, the T/C (dose: 100.0 mg/kg/injection, schedule: Q01DX009 (ip), vehicle: Klucel (hydroxypropylcellulose) (HPC)) was 105 % of control and the T/C (dose: 100.0 mg/kg/injection, schedule: Q01DX009 (oral), vehicle: saline with Tween-80) was 114 % of control.
